For this test, the target named is T1, Human SSAO (Homo sapiens, UniProt Q16853).
T1 construct: Human or mice adipose tissue homogenates, used as a source of SSAO activity; from tissue; host or cells: human adipose tissue homogenate
T1 sequence (Q16853 1-763): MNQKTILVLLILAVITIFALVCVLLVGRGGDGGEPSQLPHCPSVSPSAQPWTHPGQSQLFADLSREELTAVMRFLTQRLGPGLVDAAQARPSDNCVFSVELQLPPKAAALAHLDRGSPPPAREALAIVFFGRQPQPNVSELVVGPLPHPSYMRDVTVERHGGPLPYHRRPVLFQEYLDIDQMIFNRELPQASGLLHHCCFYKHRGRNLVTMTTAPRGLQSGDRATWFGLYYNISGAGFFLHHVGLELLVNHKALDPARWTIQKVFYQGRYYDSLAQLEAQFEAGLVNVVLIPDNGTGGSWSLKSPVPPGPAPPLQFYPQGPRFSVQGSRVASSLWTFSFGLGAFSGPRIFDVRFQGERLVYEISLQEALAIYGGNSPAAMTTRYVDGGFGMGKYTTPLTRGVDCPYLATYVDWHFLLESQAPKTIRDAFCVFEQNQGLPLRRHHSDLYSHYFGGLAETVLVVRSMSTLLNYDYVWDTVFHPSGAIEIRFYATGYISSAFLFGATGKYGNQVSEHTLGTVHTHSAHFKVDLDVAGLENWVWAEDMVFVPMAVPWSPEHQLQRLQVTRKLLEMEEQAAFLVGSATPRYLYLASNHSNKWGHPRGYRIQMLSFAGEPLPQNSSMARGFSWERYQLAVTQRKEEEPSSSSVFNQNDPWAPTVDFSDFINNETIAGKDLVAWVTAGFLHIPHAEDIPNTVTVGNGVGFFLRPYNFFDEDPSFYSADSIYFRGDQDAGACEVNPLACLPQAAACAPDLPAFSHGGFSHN
Kind of test: SSAO activity determination (Amplex Red/HRP detection of H2O2 from benzylamine oxidation). Format: biochemical. The following applies: human adipose tissue homogenate, benzylamine substrate, 37° C., 20 min preincubation. How it is done: SSAO activity determination: All assays were performed at 37° C. with SSAO from human or mice adipose tissue. The enzyme activity was measured through detection of hydrogen peroxide formed by the oxidation of benzylamine. This method is based on the horseradish peroxidase catalyzed hydrogen peroxide oxidation of 10-acetyl-3,7-dihydroxyphenoxazine (Molecular Probes A-6550), that produces resorufin a highly fluorescent product (excitation, 545 nm; emission, 590 nm) (Zhou and Panchuk-Voloshina, 1997). Human or mice adipose tissue homogenates, used as a source of SSAO activity, were preincubated in 96 well microplates for 20 min at 37° C. in 180 μL of 200 mM Phosphate buffer and H2O2-detecting mixture containing horseradish peroxidase (final concentration 1 U/mL) and Amplex Red reagent (60 μM) and different concentrations of inhibitors when necessary. […] Fluorescence intensity of the samples was measured continuously during 1 h (excitation, 545 nm; emission, 590 nm) and H2O2 concentration was calculated from calibration curves generated by serial dilutions of standard H2O2. […]
The inhibition was measured as % decrease of the signal compared to a control without inhibitor. Blank values in absence of substrates were subtracted from the fluorescence for each experimental condition. The IC50 shown in Table 1 were calculated with GraphPad Prism 4 program.

The structures appear in SMILES notation.

Compound `Cc1[nH]c2ccccc2c1CC(=O)NCC(=O)NO` [compound 4] came in with an IC50 of 0.033 ± 0.006 µM.

What is called IC50 is the concentration that gives 50% inhibition. A low value points to inhibition by little substance.

For the origin of these results see patent publication US20080269282A1, “Compounds for Inhibiting Copper-Containing Amine Oxidases and Uses Thereof” (GENMEDICA THERAPEUTICS SL, priority 2004, published 2008).
